{
  "source": "ChEMBL document CHEMBL1201862",
  "about": "“PubChem BioAssay data set” (2004)",
  "test_in_all_cases": "NCI tumour cell line growth inhibition, 48 h",
  "key": {"[1]": {"tested_on": "A549"}, "[2]": {"tested_on": "CAKI-1"}, "[3]": {"tested_on": "EKVX"}, "[4]": {"tested_on": "HCC 2998"}, "[5]": {"tested_on": "HCT-116"}, "[6]": {"tested_on": "LXFL 529"}, "[7]": {"tested_on": "M14"}, "[8]": {"tested_on": "NCI-H460"}, "[9]": {"tested_on": "OVCAR-4"}, "[10]": {"tested_on": "SF-295"}, "[11]": {"tested_on": "SK-MEL-5"}, "[12]": {"tested_on": "SR"}, "[13]": {"tested_on": "UO-31"}},
  "note": "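In this assay, cells in 96-well plates receive the compound at five concentrations for 48 hours. Endpoints are linearly interpolated between the surrounding concentrations. Abbreviation: GI50, concentration required for 50% inhibition of growth.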 Calls of active or inactive are those of the source. Rule as the data show it: active = GI50 up to about 1.1 µM and inactive = higher.",
  "data": [
    {"compound": "COc1ccc(NC(=O)CC(=O)N/N=C/c2ccc(N(CCC#N)S(C)(=O)=O)cc2)cc1", "values": [
      {"measurement": "GI50", "setting": "[1]", "result": "> 100 µM (inactive)"},
      {"measurement": "GI50", "setting": "[2]", "result": "> 100 µM (inactive)"},
      {"measurement": "GI50", "setting": "[3]", "result": "> 100 µM (inactive)"},
      {"measurement": "GI50", "setting": "[4]", "result": "> 100 µM (inactive)"},
      {"measurement": "GI50", "setting": "[5]", "result": "> 100 µM (inactive)"},
      {"measurement": "GI50", "setting": "[6]", "result": "> 100 µM (inactive)"},
      {"measurement": "GI50", "setting": "[7]", "result": "> 100 µM (inactive)"},
      {"measurement": "GI50", "setting": "[8]", "result": "> 100 µM (inactive)"},
      {"measurement": "GI50", "setting": "[9]", "result": "> 100 µM (inactive)"},
      {"measurement": "GI50", "setting": "[10]", "result": "> 100 µM (inactive)"},
      {"measurement": "GI50", "setting": "[11]", "result": "> 100 µM (inactive)"},
      {"measurement": "GI50", "setting": "[12]", "result": "3.33 µM (inactive)"},
      {"measurement": "GI50", "setting": "[13]", "result": "> 100 µM (inactive)"}
    ]},
    {"compound": "CCN(CC)CCNc1ccc(C)c2sc3ccc(O)cc3c(=O)c12", "values": [
      {"measurement": "GI50", "setting": "[1]", "result": "< 0.0431 µM (active)"},
      {"measurement": "GI50", "setting": "[2]", "result": "5.73 µM (inactive)"},
      {"measurement": "GI50", "setting": "[3]", "result": "10.2 µM (inactive)"},
      {"measurement": "GI50", "setting": "[4]", "result": "1.36 µM (inactive)"},
      {"measurement": "GI50", "setting": "[5]", "result": "1.15 µM (inactive)"},
      {"measurement": "GI50", "setting": "[6]", "result": "1.28 µM (inactive)"},
      {"measurement": "GI50", "setting": "[7]", "result": "1.19 µM (inactive)"},
      {"measurement": "GI50", "setting": "[8]", "result": "< 0.0128 µM (active)"},
      {"measurement": "GI50", "setting": "[9]", "result": "2.7 µM (inactive)"},
      {"measurement": "GI50", "setting": "[10]", "result": "0.27 µM (active)"},
      {"measurement": "GI50", "setting": "[11]", "result": "0.851 µM (active)"},
      {"measurement": "GI50", "setting": "[12]", "result": "0.0149 µM (active)"},
      {"measurement": "GI50", "setting": "[13]", "result": "1.14 µM (inactive)"}
    ]},
    {"compound": "CC(=O)OC12C=CC(=O)N1c1ccccc1C(=O)O2", "note": "(centres undefined)", "values": [
      {"measurement": "GI50", "setting": "[1]", "result": "> 100 µM (inactive)"},
      {"measurement": "GI50", "setting": "[2]", "result": "> 100 µM (inactive)"},
      {"measurement": "GI50", "setting": "[3]", "result": "> 100 µM (inactive)"},
      {"measurement": "GI50", "setting": "[4]", "result": "> 100 µM (inactive)"},
      {"measurement": "GI50", "setting": "[5]", "result": "> 100 µM (inactive)"},
      {"measurement": "GI50", "setting": "[6]", "result": "> 100 µM (inactive)"},
      {"measurement": "GI50", "setting": "[7]", "result": "> 100 µM (inactive)"},
      {"measurement": "GI50", "setting": "[8]", "result": "> 100 µM (inactive)"},
      {"measurement": "GI50", "setting": "[9]", "result": "> 100 µM (inactive)"},
      {"measurement": "GI50", "setting": "[10]", "result": "> 100 µM (inactive)"},
      {"measurement": "GI50", "setting": "[11]", "result": "> 100 µM (inactive)"},
      {"measurement": "GI50", "setting": "[12]", "result": "> 100 µM (inactive)"},
      {"measurement": "GI50", "setting": "[13]", "result": "> 100 µM (inactive)"}
    ]},
    {"compound": "Cc1ccccc1-c1c(N)nc(NC#N)nc1C(=O)Nc1ccccc1", "values": [
      {"measurement": "GI50", "setting": "[1]", "result": "> 100 µM (inactive)"},
      {"measurement": "GI50", "setting": "[2]", "result": "> 100 µM (inactive)"},
      {"measurement": "GI50", "setting": "[3]", "result": "> 100 µM (inactive)"},
      {"measurement": "GI50", "setting": "[4]", "result": "> 100 µM (inactive)"},
      {"measurement": "GI50", "setting": "[5]", "result": "> 100 µM (inactive)"},
      {"measurement": "GI50", "setting": "[6]", "result": "67.1 µM (inactive)"},
      {"measurement": "GI50", "setting": "[7]", "result": "> 100 µM (inactive)"},
      {"measurement": "GI50", "setting": "[8]", "result": "> 100 µM (inactive)"},
      {"measurement": "GI50", "setting": "[9]", "result": "> 100 µM (inactive)"},
      {"measurement": "GI50", "setting": "[10]", "result": "> 100 µM (inactive)"},
      {"measurement": "GI50", "setting": "[11]", "result": "> 100 µM (inactive)"},
      {"measurement": "GI50", "setting": "[12]", "result": "> 100 µM (inactive)"},
      {"measurement": "GI50", "setting": "[13]", "result": "> 100 µM (inactive)"}
    ]},
    {"compound": "COC(=O)c1ccc2n[se]nc2c1", "values": [
      {"measurement": "GI50", "setting": "[1]", "result": "> 100 µM (inactive)"},
      {"measurement": "GI50", "setting": "[2]", "result": "> 100 µM (inactive)"},
      {"measurement": "GI50", "setting": "[3]", "result": "71 µM (inactive)"},
      {"measurement": "GI50", "setting": "[4]", "result": "> 100 µM (inactive)"},
      {"measurement": "GI50", "setting": "[5]", "result": "> 100 µM (inactive)"},
      {"measurement": "GI50", "setting": "[6]", "result": "> 100 µM (inactive)"},
      {"measurement": "GI50", "setting": "[7]", "result": "> 100 µM (inactive)"},
      {"measurement": "GI50", "setting": "[8]", "result": "> 100 µM (inactive)"},
      {"measurement": "GI50", "setting": "[9]", "result": "> 100 µM (inactive)"},
      {"measurement": "GI50", "setting": "[10]", "result": "> 100 µM (inactive)"},
      {"measurement": "GI50", "setting": "[11]", "result": "> 100 µM (inactive)"},
      {"measurement": "GI50", "setting": "[12]", "result": "> 100 µM (inactive)"},
      {"measurement": "GI50", "setting": "[13]", "result": "> 100 µM (inactive)"}
    ]},
    {"compound": "NC(=O)C(=O)N/N=C(\\CC1(O)C(=O)Nc2ccccc21)c1ccc2ccccc2c1", "note": "(centres undefined)", "values": [
      {"measurement": "GI50", "setting": "[1]", "result": "20.7 µM (inactive)"},
      {"measurement": "GI50", "setting": "[2]", "result": "35.2 µM (inactive)"},
      {"measurement": "GI50", "setting": "[3]", "result": "33.1 µM (inactive)"},
      {"measurement": "GI50", "setting": "[4]", "result": "41.5 µM (inactive)"},
      {"measurement": "GI50", "setting": "[5]", "result": "9.48 µM (inactive)"},
      {"measurement": "GI50", "setting": "[6]", "result": "31.5 µM (inactive)"},
      {"measurement": "GI50", "setting": "[7]", "result": "32.7 µM (inactive)"},
      {"measurement": "GI50", "setting": "[8]", "result": "34 µM (inactive)"},
      {"measurement": "GI50", "setting": "[9]", "result": "37.1 µM (inactive)"},
      {"measurement": "GI50", "setting": "[10]", "result": "37.9 µM (inactive)"},
      {"measurement": "GI50", "setting": "[11]", "result": "32.3 µM (inactive)"},
      {"measurement": "GI50", "setting": "[12]", "result": "18.2 µM (inactive)"},
      {"measurement": "GI50", "setting": "[13]", "result": "40.1 µM (inactive)"}
    ]},
    {"compound": "CC1OC(=O)C(O)=C1O", "note": "(centres undefined)", "values": [
      {"measurement": "GI50", "setting": "[1]", "result": "> 100 µM (inactive)"},
      {"measurement": "GI50", "setting": "[2]", "result": "> 100 µM (inactive)"},
      {"measurement": "GI50", "setting": "[3]", "result": "> 100 µM (inactive)"},
      {"measurement": "GI50", "setting": "[4]", "result": "> 100 µM (inactive)"},
      {"measurement": "GI50", "setting": "[5]", "result": "> 100 µM (inactive)"},
      {"measurement": "GI50", "setting": "[6]", "result": "> 100 µM (inactive)"},
      {"measurement": "GI50", "setting": "[7]", "result": "> 100 µM (inactive)"},
      {"measurement": "GI50", "setting": "[8]", "result": "> 100 µM (inactive)"},
      {"measurement": "GI50", "setting": "[9]", "result": "> 100 µM (inactive)"},
      {"measurement": "GI50", "setting": "[10]", "result": "> 100 µM (inactive)"},
      {"measurement": "GI50", "setting": "[11]", "result": "> 100 µM (inactive)"},
      {"measurement": "GI50", "setting": "[12]", "result": "> 100 µM (inactive)"},
      {"measurement": "GI50", "setting": "[13]", "result": "> 100 µM (inactive)"}
    ]},
    {"compound": "CCOC(=O)CCC(NC(=O)c1ccc(NCc2ccc3nc(-c4ccccc4)c(Cl)nc3c2)cc1)C(=O)OCC", "note": "(centres undefined)", "values": [
      {"measurement": "GI50", "setting": "[1]", "result": "47.8 µM (inactive)"},
      {"measurement": "GI50", "setting": "[2]", "result": "30.6 µM (inactive)"},
      {"measurement": "GI50", "setting": "[3]", "result": "46.3 µM (inactive)"},
      {"measurement": "GI50", "setting": "[4]", "result": "92.3 µM (inactive)"},
      {"measurement": "GI50", "setting": "[5]", "result": "40.7 µM (inactive)"},
      {"measurement": "GI50", "setting": "[6]", "result": "18.2 µM (inactive)"},
      {"measurement": "GI50", "setting": "[7]", "result": "16.4 µM (inactive)"},
      {"measurement": "GI50", "setting": "[8]", "result": "27.7 µM (inactive)"},
      {"measurement": "GI50", "setting": "[9]", "result": "20.9 µM (inactive)"},
      {"measurement": "GI50", "setting": "[10]", "result": "76.2 µM (inactive)"},
      {"measurement": "GI50", "setting": "[11]", "result": "11.3 µM (inactive)"},
      {"measurement": "GI50", "setting": "[12]", "result": "13.5 µM (inactive)"},
      {"measurement": "GI50", "setting": "[13]", "result": "22.9 µM (inactive)"}
    ]}
  ]
}
